Where “and” joins values, the source holds several entries; their conditions need not be identical. Equal values may be shown once.
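Further: luminescence signal used as surrogate measure of viable cells; spheroids exposed to compounds for seven days before readout.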
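Wherever viability, T/C is given: 100% = DMSO vehicle control viability as luminescence relative to vehicle.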

The subject of the first experiment is 429239-143-T-J1-PDC complex spheroid viability. Briefly: Anticancer human tumor 429239-143-T-J1-PDC patient-derived small cell lung carcinoma cell line growth inhibition [POLQ]. The following applies: compound 0.0316 µM; stronger effect = lower value. On the procedure: Multicellular complex tumor spheroid response to Polymerase (POL) inhibitors (novobiocin, ART-558, RP6685) in combination with a variety of drugs and investigational agents in selected tumor cell lines
The POL inhibitors (novobiocin, ART-558, and RP6685) were evaluated both individually and in combination with standard of care and investigational anticancer small molecules within a complex spheroid model of solid tumors. . Complex spheroids include a stromal component modeled by human endothelial cells (HUVEC) and fibroblasts modeled by human mesenchymal stem cells (MSCs). The concentration ranges selected for each drug and investigational agent were based upon clinically achievable concentrations if the clinical Cmax of the agent was known.
Compounds. The drugs and investigational agents: novobiocin (NSC847541), ART-558 (NSC835418), RP-6685 (NSC848927), peposertib (NSC802822), ceralasertib (NSC780249), elimusertib (NSC800525), camonsertib (NSC841442), AZD-1390 (NSC803789), olaparib (NSC753686), talazoparib (NSC767125), rucaparib (NSC756644), sotorasib (NSC818433), MRTX-1133 (NSC836407), SN-38 (NSC673596), topotecan (NSC609699), epotoside (NSC141540), doxorubicin (NSC123127), gemcitabine (NSC613327), 5-fluorouracil (NSC19893), paclitaxel (NSC125973), vemurafenib (NSC761431), MSA-2 (NSC828583), SN-011 (NSC837082), adavosertib (NSC754352), prexasertib (NSC758257), carboplatin (NSC241240) and oxaliplatin (NSC266046), were obtained from the National Cancer Institute (NCI) Developmental Therapeutics Program Chemical Repository (21). The FDA-approved anticancer drug set is available from the Developmental Therapeutics Program at https://dtp.cancer.gov/organization/dscb/obtaining/. […] The stock solutions were prepared in dimethyl sulfoxide (DMSO, Sigma-Aldrich, St. Louis, MO, cat. D2650), except for the platinum compounds which were prepared in saline (Quality Biological, Gaithersburg, MD, cat. 114-055-101), at 800-fold the tested concentration and stored at -70 degrees C prior to their use. All drugs and investigational agents were tested over a range starting from a high concentration at or near the clinical Cmax and decreasing in half-log increments. If the clinical Cmax for an agent had not been determined, the highest concentration tested was 10 microM, except for SN-38, which was tested at a high concentration of 1 microM.
Cell Culture. All cells were maintained in an incubator at 37 degrees C and 5% CO2 with 95% humidity. The PDC lines were cultured according to standard operating procedures established by the NCI PDMR (https://pdmr.cancer.gov). Table 3 of the manuscript, lists the cell lines along with the number of the three cell types plated to form the mct-spheroids and media for tumor cell growth. After thawing, all PDC lines, except 997537-175-T-J1-PDC and 415267-285-R-J2-PDC, were cultured in Matrigel-coated flasks prepared with a working solution of 1X Ham's F-12 nutrient mix, without supplementation (Thermo Fisher Scientific, cat. 11765054), 100 U/mL penicillin-streptomycin (Thermo Fisher Scientific, cat. 15140122), and 2.5% Matrigel (Corning Inc., Corning, NY, cat. 354248) for the first three passages. The two PDC lines 997537-175-T-J1-PDC and 415267-285-R-J2-PDC were cultured on uncoated flasks. The 857933-349-R-J2-PDC line was cultured in 6C/Colon 1B media containing advanced DMEM/F-12 (Thermo Fisher Scientific, cat. 12634028), 10 mM HEPES (Thermo Fisher Scientific, cat. 15630080), 1X GlutaMAX supplement (Thermo Fisher Scientific, cat. 35050061), 0.1 mg/mL primocin (InvivoGen, San Diego, CA, cat. ant-pm-2), 10% defined fetal bovine serum, heat inactivated (HyClone Laboratories Inc., Logan, UT, cat. SH30070.03HI), 50% L-WRN conditioned media (ATCC, cat. CRL-3276), 1.25 mM N-Acetyl-L-cysteine (Sigma-Aldrich, cat. A9165), 10 mM nicotinamide (Sigma-Aldrich, cat. N0636), 1X B-27 supplement (Thermo Fisher Scientific, cat. 17504044), 1X N-2 supplement (Thermo Fisher Scientific, cat. […]
Turning to `C#Cc1c(F)ccc2cc(O)cc(-c3ncc4c(N5CC6CCC(C5)N6)nc(OCC56CCCN5CC(F)C6)nc4c3F)c12` (centres undefined), the viability, T/C was 92.4% and 94.3% and 101%.

`C=CC(=O)N1CCN(c2nc(=O)n(-c3c(C)ccnc3C(C)C)c3nc(-c4c(O)cccc4F)c(F)cc23)C(C)C1` (centres undefined): the viability, T/C is 96.4% and 97.7% and 104%.

As for `CC1COCCN1c1cc(C2(O)CC3CCC(C2)O3)c2cnn(-c3ccn[nH]3)c2n1` (centres undefined), the viability, T/C was 67.2% and 61.1% and 90.8%.

Consider `CCc1cc2c(N3CCc4c(cc(Cn5ccnc5)cc4-c4cn(C)nc4C(F)(F)F)C3=O)cc(C)nc2c(OC)n1`, for which the viability, T/C is 97.3% and 95.1% and 89.2%.

For the compound `CCc1cc2c(N3CCc4c(cc(Cn5ccnc5)cc4-c4cn(C)nc4C(F)(F)F)C3=O)ccnc2c(OC)n1`, the viability, T/C is 91% and 106% and 101%.

Take `COc1cc2cc(C(=O)CCC(=O)O)sc2cc1OC`: the viability, T/C was 92.3% and 91.8% and 112%.

In the case of `O=C(Nc1ccc(O)c(NS(=O)(=O)c2ccc(F)cc2)c1)c1ccc(-c2ccccc2)cc1`, the viability, T/C was 100% and 92.5% and 95.2%.

Staying with this experiment, now noted: compound 0.1 µM; stronger effect = lower value.
In the case of `C#Cc1c(F)ccc2cc(O)cc(-c3ncc4c(N5CC6CCC(C5)N6)nc(OCC56CCCN5CC(F)C6)nc4c3F)c12` (centres undefined), the viability, T/C was 91.3% and 103% and 102%.

Turning to `C=CC(=O)N1CCN(c2nc(=O)n(-c3c(C)ccnc3C(C)C)c3nc(-c4c(O)cccc4F)c(F)cc23)C(C)C1` (centres undefined), the viability, T/C was 100% and 103% and 90.4%.

As for `CC1COCCN1c1cc(C2(O)CC3CCC(C2)O3)c2cnn(-c3ccn[nH]3)c2n1` (centres undefined), the viability, T/C was 45.3% and 34.4% and 78.8%.

For the compound `CCc1cc2c(N3CCc4c(cc(Cn5ccnc5)cc4-c4cn(C)nc4C(F)(F)F)C3=O)cc(C)nc2c(OC)n1`, the viability, T/C is 77.4% and 91.2% and 89.8%.

Consider `CCc1cc2c(N3CCc4c(cc(Cn5ccnc5)cc4-c4cn(C)nc4C(F)(F)F)C3=O)ccnc2c(OC)n1`, for which the viability, T/C was 85.1% and 102% and 98.5%.

On to `COc1cc2cc(C(=O)CCC(=O)O)sc2cc1OC`, for which the viability, T/C is 105% and 102% and 92.5%.

For `O=C(Nc1ccc(O)c(NS(=O)(=O)c2ccc(F)cc2)c1)c1ccc(-c2ccccc2)cc1`, the viability, T/C was 106% and 123% and 96.5%.

Staying with this experiment, now noted: compound 0.316 µM; stronger effect = lower value.
Regarding `C#Cc1c(F)ccc2cc(O)cc(-c3ncc4c(N5CC6CCC(C5)N6)nc(OCC56CCCN5CC(F)C6)nc4c3F)c12` (centres undefined), the viability, T/C is 114% and 102% and 96%.

For the compound `C=CC(=O)N1CCN(c2nc(=O)n(-c3c(C)ccnc3C(C)C)c3nc(-c4c(O)cccc4F)c(F)cc23)C(C)C1` (centres undefined), the viability, T/C is 98.7% and 103% and 101%.

Regarding `CC1COCCN1c1cc(C2(O)CC3CCC(C2)O3)c2cnn(-c3ccn[nH]3)c2n1` (centres undefined), the viability, T/C was 17.6% and 17% and 52.5%.

In the case of `CCc1cc2c(N3CCc4c(cc(Cn5ccnc5)cc4-c4cn(C)nc4C(F)(F)F)C3=O)cc(C)nc2c(OC)n1`, the viability, T/C is 63.9% and 85.3% and 90%.

Consider `CCc1cc2c(N3CCc4c(cc(Cn5ccnc5)cc4-c4cn(C)nc4C(F)(F)F)C3=O)ccnc2c(OC)n1`, for which the viability, T/C is 75.5% and 95.9% and 87.7%.

For the compound `COc1cc2cc(C(=O)CCC(=O)O)sc2cc1OC`, the viability, T/C is 94.3% and 97.6% and 97.8%.

In the case of `O=C(Nc1ccc(O)c(NS(=O)(=O)c2ccc(F)cc2)c1)c1ccc(-c2ccccc2)cc1`, the viability, T/C was 105% and 106% and 107%.

The experiment is the same for the next values; noted with them: compound 1 µM; stronger effect = lower value.
In the case of `C#Cc1c(F)ccc2cc(O)cc(-c3ncc4c(N5CC6CCC(C5)N6)nc(OCC56CCCN5CC(F)C6)nc4c3F)c12` (centres undefined), the viability, T/C was 99% and 112% and 102%.

On to `C=CC(=O)N1CCN(c2nc(=O)n(-c3c(C)ccnc3C(C)C)c3nc(-c4c(O)cccc4F)c(F)cc23)C(C)C1` (centres undefined), for which the viability, T/C was 105% and 101% and 102%.

As to `CC1COCCN1c1cc(C2(O)CC3CCC(C2)O3)c2cnn(-c3ccn[nH]3)c2n1` (centres undefined), the viability, T/C was 10.2% and 7.95% and 6.96%.

On to `CCc1cc2c(N3CCc4c(cc(Cn5ccnc5)cc4-c4cn(C)nc4C(F)(F)F)C3=O)cc(C)nc2c(OC)n1`, for which the viability, T/C is 48% and 81.4% and 78.2%.

`CCc1cc2c(N3CCc4c(cc(Cn5ccnc5)cc4-c4cn(C)nc4C(F)(F)F)C3=O)ccnc2c(OC)n1`: the viability, T/C is 61.2% and 86.6% and 91.9%.

On to `COc1cc2cc(C(=O)CCC(=O)O)sc2cc1OC`, for which the viability, T/C is 108% and 109% and 97.7%.

As to `O=C(Nc1ccc(O)c(NS(=O)(=O)c2ccc(F)cc2)c1)c1ccc(-c2ccccc2)cc1`, the viability, T/C is 103% and 107% and 99.5%.

The experiment is the same for the next values; noted with them: compound 3.16 µM; stronger effect = lower value.
As to `C#Cc1c(F)ccc2cc(O)cc(-c3ncc4c(N5CC6CCC(C5)N6)nc(OCC56CCCN5CC(F)C6)nc4c3F)c12` (centres undefined), the viability, T/C was 102% and 97.4% and 98.6%.

As to `C=CC(=O)N1CCN(c2nc(=O)n(-c3c(C)ccnc3C(C)C)c3nc(-c4c(O)cccc4F)c(F)cc23)C(C)C1` (centres undefined), the viability, T/C was 114% and 103% and 113%.

For `CC1COCCN1c1cc(C2(O)CC3CCC(C2)O3)c2cnn(-c3ccn[nH]3)c2n1` (centres undefined), the viability, T/C is 9.58% and 7.43% and 2.96%.

For `CCc1cc2c(N3CCc4c(cc(Cn5ccnc5)cc4-c4cn(C)nc4C(F)(F)F)C3=O)cc(C)nc2c(OC)n1`, the viability, T/C is 42.7% and 76.8% and 69.8%.

Take `CCc1cc2c(N3CCc4c(cc(Cn5ccnc5)cc4-c4cn(C)nc4C(F)(F)F)C3=O)ccnc2c(OC)n1`: the viability, T/C was 55.3% and 83.3% and 73.6%.

Turning to `COc1cc2cc(C(=O)CCC(=O)O)sc2cc1OC`, the viability, T/C is 108% and 107% and 97.8%.

For `O=C(Nc1ccc(O)c(NS(=O)(=O)c2ccc(F)cc2)c1)c1ccc(-c2ccccc2)cc1`, the viability, T/C is 113% and 122% and 114%.

Staying with this experiment, now noted: compound 10 µM; stronger effect = lower value.
For the compound `C#Cc1c(F)ccc2cc(O)cc(-c3ncc4c(N5CC6CCC(C5)N6)nc(OCC56CCCN5CC(F)C6)nc4c3F)c12` (centres undefined), the viability, T/C is 84.1% and 91.3% and 103%.

On to `C=CC(=O)N1CCN(c2nc(=O)n(-c3c(C)ccnc3C(C)C)c3nc(-c4c(O)cccc4F)c(F)cc23)C(C)C1` (centres undefined), for which the viability, T/C was 112% and 102% and 108%.

As to `CC1COCCN1c1cc(C2(O)CC3CCC(C2)O3)c2cnn(-c3ccn[nH]3)c2n1` (centres undefined), the viability, T/C was 4.72% and 5.39% and 2.25%.

Consider `CCc1cc2c(N3CCc4c(cc(Cn5ccnc5)cc4-c4cn(C)nc4C(F)(F)F)C3=O)cc(C)nc2c(OC)n1`, for which the viability, T/C is 38.6% and 45.6% and 43.8%.

In the case of `CCc1cc2c(N3CCc4c(cc(Cn5ccnc5)cc4-c4cn(C)nc4C(F)(F)F)C3=O)ccnc2c(OC)n1`, the viability, T/C was 32.2% and 55.7% and 54.7%.

Regarding `COc1cc2cc(C(=O)CCC(=O)O)sc2cc1OC`, the viability, T/C was 97.3% and 104% and 87.3%.

Take `O=C(Nc1ccc(O)c(NS(=O)(=O)c2ccc(F)cc2)c1)c1ccc(-c2ccccc2)cc1`: the viability, T/C is 103% and 119% and 63.5%.

The same experiment, now with this note: curve of compound.
As for `C#Cc1c(F)ccc2cc(O)cc(-c3ncc4c(N5CC6CCC(C5)N6)nc(OCC56CCCN5CC(F)C6)nc4c3F)c12` (centres undefined), the IC50 was greater than 10 µM.

Turning to `C=CC(=O)N1CCN(c2nc(=O)n(-c3c(C)ccnc3C(C)C)c3nc(-c4c(O)cccc4F)c(F)cc23)C(C)C1` (centres undefined), the concentration for half-maximal inhibition (IC50) was greater than 10 µM.

As for `CC1COCCN1c1cc(C2(O)CC3CCC(C2)O3)c2cnn(-c3ccn[nH]3)c2n1` (centres undefined), the 50% inhibitory concentration (IC50) was 0.0776 µM and 0.051 µM and 0.324 µM.

As for `CCc1cc2c(N3CCc4c(cc(Cn5ccnc5)cc4-c4cn(C)nc4C(F)(F)F)C3=O)cc(C)nc2c(OC)n1`, the IC50 was 0.977 µM and 8.65 µM and 7.62 µM.

Consider `CCc1cc2c(N3CCc4c(cc(Cn5ccnc5)cc4-c4cn(C)nc4C(F)(F)F)C3=O)ccnc2c(OC)n1`, for which the IC50 was 3.3 µM and > 10 µM.

Take `COc1cc2cc(C(=O)CCC(=O)O)sc2cc1OC`: the IC50 was greater than 10 µM.

Consider `O=C(Nc1ccc(O)c(NS(=O)(=O)c2ccc(F)cc2)c1)c1ccc(-c2ccccc2)cc1`, for which the concentration for half-maximal inhibition (IC50) is greater than 10 µM.

In general, viability, T/C refers to the ratio of treated to control. What is called IC50 is the point on the concentration scale where inhibition reaches its midpoint.

The record behind these values is PubChem BioAssay AID1963845 (Molecular Pharmacology Branch, DTP, NCI, 2024).
